Data: patent US20070112025A1, “Use of kynurenine-3-hydroxylase inhibitors for the preparation of medicaments for the treatment of l-dopa induced movement disorders, dyskinesias, drug addiction, pain and cataract” (priority 2003, published 2007)

How the values were obtained:
Wistar rats = assay: Tail flick test; assay type: in vivo, rat; settings: 40 mg/kg ip, 90 min after administration; control 3.9±0.4 sec
Method: (§1) We evaluated the analgesic activity of Ro-618048 (40 mg/kg; ip) and of 2-(3,4-Dichloro-benzoyl)-cyclopropanecarboxylic acid (UPF-648, 50 mg/kg; ip) in animal models of inflammatory and neuropathic pain (formalin test in mice) as well as in acute pain test (tail flick in rats).
(§2) Adult male Wistar rats weighing 175-200 g, and Crl:CD-1 mice weighing 22-25 g at testing were used (Harlan-Nossan, Italy).
The tail flick test measures the thermal nociceptive threshold defined as the latency required to elicit a tail response to heat. The test was performed according to the method described by D'Amour and Smith (1941, J. Pharmacol. Exp. Ther. 72:74-79) using an analgesiometer (U. Basile, Italy). Rats were treated ip with the drug (Ro-618048 40 mg/kg) or vehicle and 90 min after, each animal was placed on a platform and the tail was exposed to a focused beam of radiant heat approximately 3 cm from the tip. The beam light intensity was adjusted to produce a reaction latency of 3-5 sec in control rats. The thermal nociceptive threshold was defined as the latency required to elicit a tail response. A 20 sec cut-off was used to prevent tissue damage.
Tail Flick Test. The latency was defined as the interval of time (sec) between the onset of the thermal stimulus and the flick of the tail. Data were evaluated by analysis of variance followed by Dunnett's t-test.

6-OHDA lesioned rats = assay: Rotational response to chronic L-DOPA in 6-OHDA lesioned rats (wearing-off model); assay type: in vivo, rat
Method: In 6-OHDA lesioned rats, a commonly used model of PD, motor response to L-DOPA decreases after chronic treatment. This effect mimics the “wearing-off” phenomenon observed in parkinsonian patients under chronic treatment with L-DOPA (Boldry et al., Brain Res 1995 Sep. 18; 692: 259-64).
In this rat model we evaluated the effect of Ro-618048 (40 mg/kg; ip) and of 2-(3,4-Dichloro-benzoyl)-cyclopropanecarboxylic acid (UPF-648, 50 mg/kg; ip), on the rotational response to chronic L-DOPA (28 days treatment, […]; ip) in comparison to MK-801 (0.1 mg/kg; ip). […]
To measure rotational behavior, rats were placed in circular cages and tethered to an automated rotometer. The number of complete turns performed in each 5-min period was recorded by a computer. […]
Rats were injected intraperitoneally twice a day at 8:00 and 16:00 for 28 consecutive days with either a combination of L-DOPA methylester (50 mg/kg) and the peripheral decarboxylase inhibitor benserazide (12.5 mg/kg) or saline. […] The duration of the response was measured by the time between the first 5 min interval when the rate of turning attained half its eventual average value and the first interval when the rate again declined to half its average values.
Data were analyzed by analysis of variance followed by Duncan's new multiple range test for post-hoc comparisons.

culture lenses = assay: In vitro models of cataract (culture lenses exposed to different insults)
Method: (§3) We evaluated the effect of a treatment with inhibitors of Kyn-3OHase (Ro-618048) and of 2-(3,4-Dichloro-benzoyl)-cyclopropanecarboxylic acid (UPF-648, 50 mg/kg; ip) in an in vivo (chronic naphtalene treatment) and an in vitro models of cataract (culture lenses exposed to different insults).

Crl:CD-1 mice = assay: Mice formalin test; assay type: in vivo, mouse; settings: 40 mg/kg ip 15 min before formalin, p<0.05
Method: as §1, §2
The formalin test in mouse is a procedure used to model neurogenic inflammation and continuous pain (Shibata et al., 1989, Pain 38: 347-352) as well as some features of post-injury pain in man (Dallel et al., 1995, Pain. 61: 11-16).
According to a modified protocol from Rosland et al., (1990, Pain 42: 235-242) mice were injected subcutaneously (s.c.) with 20 μl of 2.7% solution of formalin into the plantar surface of left hindpaw and placed immediately into clear PVC observation chambers (23×12×13 cm). Pain behavior was quantified by counting the cumulative licking time (sec) of the injected paw. Measurements were taken during the early phase (0-5 min) and late phase (30-40 min) after formalin injection (Tjolsen et al., 1992, Pain 51: 5-17). […]
Mice Formalin test. […] Data were evaluated by analysis of variance followed by Dunnett's t-test.
The cumulative licking time (sec) of the injected paw was recorded during the early phase (0-5 min) and late phase (30-40 min) after formalin injection.

[1] = system: MPTP-treated cynomolgus (macaca fascicularis) monkeys; assay: L-DOPA induced dyskinesia model in parkinsonian monkeys; assay type: in vivo, cynomolgus monkey
Method: The studies were performed in five to six female MPTP-treated cynomolgus (macaca fascicularis) monkeys (weighing 2.9 to 5.0 kg) with a stable parkinsonian syndrome and reproducible dyskinesias to L-Dopa. The animals were handled in accordance with the National Institute of Health Guide for the Care and Use of Laboratory Animals and all procedures were approved by the Institutional Animal Care Committee of Laval University. They were housed separately in observation cages and exposed to a 12 hour light/dark cycle (lights on 6.0 a.m.-6.0 p.m.) in a temperature controlled room, 23±1° C. They were fed once daily in the afternoon with pellets and fruits, and had free access to water.
RO-618048 was administered alone and simultaneously with L-Dopa. In particular: • A) RO-618048 at increasing doses, 10, 30, 100 mg/kg was administered alone on three consecutive days and compared with vehicle administered before and after treatments. • B) RO-618048 at increasing doses, 10, 30, 100 mg/kg was given simultaneously with L-Dopa/benserazide on three consecutive days and compared with L-Dopa, which was also given on three consecutive days. During the interval between the treatments, to maintain priming, the animals received an oral treatment with L-Dopa/benserazide (100/25 mg; Prolopa.). Compounds
RO-618048 at increasing doses, 10, 30, 100 mg/kg was suspended in 0.1% (vol/vol) Tween 80/sterile water and homogenized in a glass homogeniser and mixed overnight until administration, as a homogeneous suspension. The maximum volume of drug suspension administered by oral gavage (p.o) at each increasing dose was 10, 20 and 40 ml respectively. As a control, a suspension of 0.1% (vol/vol) Tween 80/sterile water was administered p.o. (2 ml/kg). L-Dopa methyl ester (Sigma, St. Louis, Mo.); always together with benserazide 50 mg, (Hoffmann-La Roche, Montreal, Quebec), at doses ranging between 25 to 30 mg/kg (based on the threshold concentration for each animal) was dissolved in 1 ml of 0.9% sterile saline and administered s.c. alone or in combination with RO-618048.
The severity of dyskinesias was rated for the face, neck, trunk, arms and legs in the following way: None=0; Mild=1; Moderate=2; Severe=3, based on the assessment of the amplitude, interference with normal motor activity and the frequency of the abnormal movements, according to a scale which we have used in several published studies. The dyskinetic score obtained was the sum of the scores for all body segments for a maximal score of 21 points. The mean dyskinetic score for each animal has been calculated as the average of all the scores obtained for 3 hours or for the total duration of the effect of the drugs.
The mean Parkinsonian scores and also the mean dyskinetic scores obtained for each monkey, during 3 hours or the total duration of the effect of a given drug, were analysed using the nonparametric Friedman's test followed by multiple comparisons based on Friedman rank sums.

lens = assay: In vivo model of cataract (chronic naphtalene treatment)
Method: as §3

Male Wistar rats = assay: Cocaine-induced behavioral sensitization (locomotor activity); assay type: in vivo, rat
Method: We evaluated the effect of Ro-618048 (40 mg/kg; ip) and of 2-(3,4-Dichloro-benzoyl)-cyclopropanecarboxylic acid (UPF-648, 50 mg/kg; ip) in a model of cocaine-induced behavioral sensitization in rat.
Male Wistar rats (Charles River, Kingston, N.Y.) weighing 200-250 g upon arrival were used. Locomotor activity was measured in sixteen identical metal wire hanging cages each measuring 36 cm (L)×25 cm (W)×20 cm (H). Each cage contained two sets of infrared emitter-detector photocells positioned along the long axis 1-cm above the grid floor and 8 cm from the front and back of the cage. Background noise was provided by a white noise generator. Movement within the cages produced photocell interruptions, which were automatically recorded by an IBM-compatible computer.
Animals were habituated to the locomotor activity chambers for 2-3 consecutive days before the experiment. Rats received 5 daily IP injections of cocaine (15 mg/kg) or saline and either the Kyn-3OHase inhibitor Ro-618048 (40 mg/kg ip) or its vehicle and locomotor activity was recorded for 3 hours. Ten days after the last injection of cocaine or saline (day 15), the animals were challenged with 15 mg/kg of cocaine in absence of Ro-618048 and locomotor activity was again monitored for 3 h. […]

glutamate release = settings: KYNA 30-100 nM; without modifying ionotropic or metabotropic GLU receptor function; cited from earlier work
MTPP treated monkeys = settings: NMDA antagonist in MTPP treated monkeys; cited from earlier work
[2] = RO-618048 alone 10, 30, 100 mg/kg p.o., compared with vehicle

Structure (SMILES): COc1ccc(S(=O)(=O)Nc2nc(-c3cccc([N+](=O)[O-])c3)cs2)cc1OC [Ro-618048]
- tail flick response latency to noxious heat (Wistar rats): 6.1 ± 0.4 s
- decreased rotational response to L-DOPA (duration) (6-OHDA lesioned rats; Ro-618048 40 mg/kg ip, acute co-administration on 29th day after 28 days L-DOPA): reversed
- degree of opacification of the lens (culture lenses): reduce the degree of opacification of the lens
- cumulative licking time, early phase (0-5 min) (Crl:CD-1 mice; control 106±4.39 sec): 75 ± 5.5 s
- cumulative licking time, late phase (30-40 min) (Crl:CD-1 mice; control 123±12.8 sec): 68 ± 14.3 s
- reduction of dyskinetic response to L-Dopa ([1]; 30 mg/kg p.o. simultaneously with L-Dopa/benserazide (25 to 30 mg/kg)): about 20%
- reduction of dyskinetic response to L-Dopa ([1]; 100 mg/kg p.o. simultaneously with L-Dopa/benserazide (25 to 30 mg/kg)): about 20%
- Parkinsonian score [1, 2]: did not have any effect
- locomotor activity [1, 2]: did not have any effect
- effect on improvement of parkinsonism induced by L-Dopa ([1]; acute RO-618048 with L-Dopa): without any negative effect
- degree of opacification of the lens (lens): reduce the degree of opacification of the lens
- increase of locomotor response to cocaine, fifth day vs first day (Male Wistar rats; Ro-618048 40 mg/kg IP with cocaine 15 mg/kg daily for 5 days, vehicle 20% higher): did not show any significant increase
- increased locomotor activity response to cocaine challenge vs first day (Male Wistar rats; challenge cocaine 15 mg/kg ten days after last injection, without Ro-618048, pretreated 40 mg/kg IP, vehicle 30% higher): did not

Structure (SMILES): O=C(O)c1cc(=O)c2ccccc2[nH]1 [KYNA, kynurenic acid]
- glutamate release (glutamate release): strongly inhibits glutamate release

Structure (SMILES): O=C(O)C1CC1C(=O)c1ccc(Cl)c(Cl)c1 (stereo not drawn) [UPF-648, 2-(3,4-Dichloro-benzoyl)-cyclopropanecarboxylic acid]
- degree of opacification of the lens (culture lenses): reduce the degree of opacification of the lens
- degree of opacification of the lens (lens): reduce the degree of opacification of the lens

Structure (SMILES): C[C@]12N[C@H](Cc3ccccc31)c1ccccc12 [MK801]
- decreased rotational response to L-DOPA (duration) (6-OHDA lesioned rats; MK801 0.1 mg/kg ip, 29th day after 28 days L-DOPA): similar
- L-DOPA induced dyskinesia (MTPP treated monkeys): reduced L-DOPA induced dyskinesia
